Source: patent US11000033B2, “Ketone or oxime compound, and herbicide” (NISSAN CHEMICAL CORPORATION, priority 2014, dated 2021)

Key:
Type in all cases: in vivo
Digitaria ciliaris = assay: Test Example 5: herbicidal effect by foliage application, plastic box (symbol F); settings: 320 g/ha, 3 weeks after application
How it was run: (§1)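 Seeds were sown in sterilized diluvial soil, covered with about 1.5 cm of soil and grown 14 days in a greenhouse at 25° C. to 30° C. An emulsifiable formulation diluted in water to a set rate was sprayed over foliage, and injury was scored 3 weeks later.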

Setaria viridis = assay: Test Example 5: herbicidal effect by foliage application, plastic box (symbol G); settings: 320 g/ha, 3 weeks after application
How it was run: as §1

Alopecurus myosuroides = assay: Test Example 4: herbicidal effect by soil treatment (symbol J); settings: application herbicide amount 320 g/ha
How it was run: (§2)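 Seeds were sown in sterilized diluvial soil, covered with about 1.5 cm of soil, and the soil surface was sprayed with a water-diluted emulsion of the compound at a predetermined rate. Plants grew in a greenhouse at 25° C. to 30° C.; effects were scored visually 3 weeks after application.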

rice = assay: Test Example 4: effect on crop by soil treatment (symbol b); settings: application herbicide amount 320 g/ha
How it was run: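 Crop seeds, among them rice, wheat, beet and rapeseed, were sown in sterilized diluvial soil and covered with about 1.5 cm of soil. Boxes were kept in a greenhouse at 25° C. to 30° C. for plant growth.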

Galium spurium = assay: Test Example 4: herbicidal effect by soil treatment (symbol Q); settings: application herbicide amount 320 g/ha
How it was run: as §2

Chenopodium album = assay: Test Example 4: herbicidal effect by soil treatment (symbol O); settings: application herbicide amount 320 g/ha
How it was run: as §2

Leptochloa chinensis = assay: Test Example 3: herbicidal effect by foliage application, Wagner pot (symbol D); settings: application herbicide amount 320 g/ha
How it was run: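 Foliar spray of a water-diluted emulsion at a predetermined herbicide amount, applied to 14-day-old plants. Seedlings were raised in flooded alluvial soil (0.1–0.5 cm water) at 25–30 °C in a greenhouse. Injury was rated after 3 weeks against fixed criteria.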

transplanted rice plant = assay: Test Example 1: effect on crop, application before weed generation in submerged conditions (symbol a); settings: application herbicide amount 320 g/ha
How it was run: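 Alluvial soil pots flooded to 4 cm water, sown with Echinochloa oryzacola, Scirpus juncoides and Monochoria vaginalis, then transplanted with 2.5 leaf stage rice seedlings; pre-emergence application. Greenhouse 25° C. to 30° C.; scored 0–5 by herbicidal ratio 3 weeks after application.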

Avena fatua = assay: Test Example 4: herbicidal effect by soil treatment (symbol I); settings: application herbicide amount 320 g/ha
How it was run: as §2

beet = assay: Test Example 5: effect on crop by foliage application, plastic box (symbol f); settings: 320 g/ha, 3 weeks after application
How it was run: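 Greenhouse test at 25° C. to 30° C. Seeds of crops and weeds were spot-sown in boxes of sterilized diluvial soil under roughly 1.5 cm soil cover, then grown for foliage treatment.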

Monochoria vaginalis = assay: Test Example 2: herbicidal activity, application during weed generation in submerged conditions (symbol C); settings: Table 23; application herbicide amount 320 g/ha; grade 0-5 by criteria of Test Example 1
How it was run: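 Scoring of herbicidal effect took place 3 weeks after treatment, using the criteria of the earlier test. Treatment was water-surface application of diluted emulsifiable compound at a set dose. Plants were at one- to two-leaf stage in submerged alluvial soil (4 cm depth), greenhouse 25-30° C.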

SMILES	F: Digitaria ciliaris, herbicidal effect grade (Digitaria ciliaris)	G: Setaria viridis, herbicidal effect grade (Setaria viridis)	J: Alopecurus myosuroides, herbicidal effect grade (Alopecurus myosuroides)	b: directly sowed rice plant, effect on crop grade (rice)	Q: Galium spurium, herbicidal effect grade (Galium spurium)	O: Chenopodium album, herbicidal effect grade (Chenopodium album)	herbicidal effect on D (Leptochloa chinensis), grade 0-5 (Leptochloa chinensis)	Effect grade on crop, a: transplanted rice plant (transplanted rice plant)	I: Avena fatua, herbicidal effect grade (Avena fatua)	f: beet, effect on crop grade (beet)	Herbicidal effect grade, C: Monochoria vaginalis (Monochoria vaginalis)
CCOC(=O)C(C(=O)c1ccccn1)C1CC(O)=C(c2c(C)cc(C)cc2C)C1=O (stereo not drawn) [2-013]	4 (Herbicidal ratio of 70% or higher and lower than 90%)	5 (Herbicidal ratio of 90% or more (almost completely withered))	0 (Herbicidal ratio of 5% or lower (almost no effect))	5 (Herbicidal ratio of 90% or more (almost completely withered))	0 (Herbicidal ratio of 5% or lower (almost no effect))	0 (Herbicidal ratio of 5% or lower (almost no effect))	0 (Herbicidal ratio of 5% or lower (almost no effect))	0 (Herbicidal ratio of 5% or lower (almost no effect))	0 (Herbicidal ratio of 5% or lower (almost no effect))	0 (Herbicidal ratio of 5% or lower (almost no effect))	0 (Herbicidal ratio of 5% or lower (almost no effect))
Cc1cc(C)c(C2=C(O)CC(CC(=O)C3CC3)C2=O)c(C)c1 (stereo not drawn) [2-017]	5 (Herbicidal ratio of 90% or more (almost completely withered))	5 (Herbicidal ratio of 90% or more (almost completely withered))	3 (Herbicidal ratio of 40% or higher and lower than 70%)	5 (Herbicidal ratio of 90% or more (almost completely withered))	0 (Herbicidal ratio of 5% or lower (almost no effect))	0 (Herbicidal ratio of 5% or lower (almost no effect))	5 (Herbicidal ratio of 90% or more (almost completely withered))	5 (Herbicidal ratio of 90% or more (almost completely withered))	0 (Herbicidal ratio of 5% or lower (almost no effect))	0 (Herbicidal ratio of 5% or lower (almost no effect))	4 (Herbicidal ratio of 70% or higher and lower than 90%)
CCC(C)C(=O)CC1CC(O)=C(c2c(C)cc(C)cc2C)C1=O (stereo not drawn) [2-024]	4 (Herbicidal ratio of 70% or higher and lower than 90%)	5 (Herbicidal ratio of 90% or more (almost completely withered))	0 (Herbicidal ratio of 5% or lower (almost no effect))	5 (Herbicidal ratio of 90% or more (almost completely withered))	0 (Herbicidal ratio of 5% or lower (almost no effect))	0 (Herbicidal ratio of 5% or lower (almost no effect))	3 (Herbicidal ratio of 40% or higher and lower than 70%)	4 (Herbicidal ratio of 70% or higher and lower than 90%)	0 (Herbicidal ratio of 5% or lower (almost no effect))	0 (Herbicidal ratio of 5% or lower (almost no effect))	0 (Herbicidal ratio of 5% or lower (almost no effect))
Cc1cc(C)c(C2=C(O)CC(CC(=O)C3CCCC3)C2=O)c(C)c1 (stereo not drawn) [2-028]	2 (Herbicidal ratio of 20% or higher and lower than 40%)	5 (Herbicidal ratio of 90% or more (almost completely withered))	3 (Herbicidal ratio of 40% or higher and lower than 70%)	5 (Herbicidal ratio of 90% or more (almost completely withered))	0 (Herbicidal ratio of 5% or lower (almost no effect))	0 (Herbicidal ratio of 5% or lower (almost no effect))	5 (Herbicidal ratio of 90% or more (almost completely withered))	3 (Herbicidal ratio of 40% or higher and lower than 70%)	0 (Herbicidal ratio of 5% or lower (almost no effect))	0 (Herbicidal ratio of 5% or lower (almost no effect))	0 (Herbicidal ratio of 5% or lower (almost no effect))
Cc1cc(C)c(C2=C(O)CC(CC(=O)C3CCCCC3)C2=O)c(C)c1 (stereo not drawn) [2-030]	4 (Herbicidal ratio of 70% or higher and lower than 90%)	5 (Herbicidal ratio of 90% or more (almost completely withered))	3 (Herbicidal ratio of 40% or higher and lower than 70%)	5 (Herbicidal ratio of 90% or more (almost completely withered))	0 (Herbicidal ratio of 5% or lower (almost no effect))	0 (Herbicidal ratio of 5% or lower (almost no effect))	5 (Herbicidal ratio of 90% or more (almost completely withered))	3 (Herbicidal ratio of 40% or higher and lower than 70%)	0 (Herbicidal ratio of 5% or lower (almost no effect))	0 (Herbicidal ratio of 5% or lower (almost no effect))	0 (Herbicidal ratio of 5% or lower (almost no effect))
Cc1cc(C)c(C2=C(O)CC(CC(=O)c3ccc(F)cc3)C2=O)c(C)c1 (stereo not drawn) [2-032]	2 (Herbicidal ratio of 20% or higher and lower than 40%)	5 (Herbicidal ratio of 90% or more (almost completely withered))	5 (Herbicidal ratio of 90% or more (almost completely withered))	5 (Herbicidal ratio of 90% or more (almost completely withered))	0 (Herbicidal ratio of 5% or lower (almost no effect))	0 (Herbicidal ratio of 5% or lower (almost no effect))	3 (Herbicidal ratio of 40% or higher and lower than 70%)	5 (Herbicidal ratio of 90% or more (almost completely withered))	0 (Herbicidal ratio of 5% or lower (almost no effect))	0 (Herbicidal ratio of 5% or lower (almost no effect))	0 (Herbicidal ratio of 5% or lower (almost no effect))
